Measurements from ChEMBL document CHEMBL1153491, “Discovery of CYT997: a structurally novel orally active microtubule targeting agent” (Bioorg Med Chem Lett, 2009).
Activity calls are given as the source filed them. The calls are words filed in the database; no cut-off is given here.

Tests used:
[1] = tested on: PC-3; experiment: Cytotoxicity against human PC3 cells after 72 hrs by MTT assay; assay type: functional, cell-based; settings: PC-3, 72 h
[2] = tested on: DU-145; experiment: Cytotoxicity against human DU145 cells after 72 hrs by MTT assay; assay type: functional, cell-based; settings: DU-145, 72 h
[3] = Half life in rat at 5 mg/kg, iv in presence of captisol; assay type: ADME, organism-based; design: dose 5 mg/kg, route intravenous; settings: in vivo
[4] = tested on: PC-3; experiment: Cell cycle arrest in human PC3 cells assessed as accumulation in G2/M phase after 1 hr; assay type: functional, cell-based
[5] = Clearance in rat at 5 mg/kg, iv in presence of captisol; assay type: ADME, organism-based; design: dose 5 mg/kg, route intravenous; settings: in vivo
[6] = Apparent volume of distribution in rat at 5 mg/kg, iv in presence of captisol; assay type: ADME, organism-based; design: dose 5 mg/kg, route intravenous; settings: in vivo, read-out: Vz
[7] = tested on: PC-3; experiment: Disruption of microtubule network in human PC3 cells after 1 hr; assay type: functional, cell-based
[8] = organism: Bos taurus; experiment: Inhibition of bovine tubulin polymerization at 3 uM
[9] = Apparent volume of distribution in rat at 5 mg/kg, iv; assay type: ADME, organism-based; design: dose 5 mg/kg, route intravenous; settings: in vivo, read-out: Vz
[10] = Oral bioavailability in rat at 25 mg/kg, po; assay type: ADME, organism-based; settings: in vivo
[11] = Clearance in rat at 5 mg/kg, iv; assay type: ADME, organism-based; design: dose 5 mg/kg, route intravenous; settings: in vivo
[12] = Cmax in rat at 25 mg/kg, po; assay type: ADME, organism-based; design: dose 25 mg/kg, route oral; settings: in vivo
[13] = Half life in rat at 5 mg/kg, iv; assay type: ADME, organism-based; design: dose 5 mg/kg, route intravenous; settings: in vivo

| SMILES | IC50 [1] [nM] | IC50 [2] [nM] | also measured |
| --- | --- | --- | --- |
| CCC[C@H](Nc1ccnc(-c2ccc(NC(=O)NCC)c(OC)c2)n1)c1cccnc1 | 150 | 200 |  |
| CCCC(Nc1cncc(-c2ccc(O)c(OC)c2)n1)c1cccc(F)c1 (stereo not drawn) | 600 | 300 |  |
| CCC[C@H](Nc1cncc(-c2ccc(NC(=O)NCC)c(OC)c2)n1)c1cccnc1 |  |  | half-life [3]: 0.6 h; Activity [4]: Active; clearance [5]: 127 mL/min/kg; Vd [6]: 7.1 L/kg; Activity [7]: Active; inhibition [8]: Active |
| CCC[C@H](Nc1nc(-c2ccc(NC(=O)NCC)c(OC)c2)ncc1C)c1cccnc1 [LEXIBULIN] | 60 | 60 | Vd [9]: 5.2 L/kg; bioavailability [10]: 78%; clearance [11]: 36.8 mL/min/kg; Cmax [12]: 9.4 µM; half-life [13]: 1.6 h |
| CCCC(Nc1cncc(-c2ccc(O)c(OC)c2)n1)c1ccc(OC)cc1 (stereo not drawn) | 3000 | 3000 |  |
| CCC[C@H](Nc1cncc(-c2ccc(O)c(OC)c2)n1)c1ccccc1 | 160 | 200 |  |
| CCC[C@H](Nc1cc(C)nc(-c2ccc(NC(=O)NCC)c(OC)c2)n1)c1cccnc1 | 200 | 200 |  |
| CCCC(Nc1cncc(-c2ccc(O)c(OC(C)C)c2)n1)c1cccnc1 (stereo not drawn) | 10000 | 10000 |  |
| CCCC(Nc1cncc(-c2ccc(NC(=O)NCC)c(OC)c2)n1)c1cccnc1 (stereo not drawn) | 40 | 60 |  |
| CCC[C@H](Nc1cc(-c2ccc(NC(=O)NCC)c(OC)c2)ncn1)c1cccnc1 | 100 | 100 |  |
| CCC[C@H](Nc1cc(-c2ccc(NC(=O)NCC)c(OC)c2)nc(C)n1)c1cccnc1 | 80 | 100 |  |
| CCCC(=O)Nc1ccc(-c2cncc(NC(CCC)c3cccnc3)n2)cc1OC (stereo not drawn) | 600 |  |  |
| CCCC(Nc1cncc(-c2ccc(NC(C)=O)c(OC)c2)n1)c1cccnc1 (stereo not drawn) | 5000 |  |  |
| CCCC(Nc1cncc(-c2ccc(O)c(OC)c2)n1)c1ccc(F)cc1 (stereo not drawn) |  | 4000 |  |
| CCCC(Nc1cncc(-c2ccc(O)c(OC)c2)n1)c1cccc(Cl)c1 (stereo not drawn) | 1000 | 600 |  |
| CCCC(Nc1cncc(-c2ccc(NC(=O)NCC)c(CC)c2)n1)c1cccnc1 (stereo not drawn) | 160 | 100 |  |
| CCCC(Nc1cncc(-c2ccc(NC(=O)NCCN(C)C)c(OC)c2)n1)c1cccnc1 (stereo not drawn) | 1000 | 1000 |  |
| CCCC(Nc1cncc(-c2ccc(O)c(OCC)c2)n1)c1cccnc1 (stereo not drawn) | 1000 |  |  |
| CC[C@H](Nc1cncc(-c2ccc(O)c(OC)c2)n1)c1ccccc1 | 10000 | 10000 |  |
| CCCC(Nc1cncc(-c2ccc(O)c(OC)c2)n1)c1ccc(Cl)cc1 (stereo not drawn) | 20000 | 10000 |  |
| CCCC(Nc1cncc(-c2ccc(O)c(OC)c2)n1)c1cccnc1 (stereo not drawn) | 300 | 600 |  |
| COc1cc(-c2cncc(N[C@@H](C)c3ccccc3)n2)ccc1O | 10000 | 3000 |  |
| CCCC(Nc1cncc(-c2ccc(O)c(OC)c2)n1)c1ccccc1 (stereo not drawn) | 160 | 500 |  |
| CCCC(Nc1cncc(-c2ccc(O)c(OC)c2)n1)c1cccc(OC)c1 (stereo not drawn) | 10000 | 1000 |  |
